Columns and labels:
[1] = molecular target: T1, Ba/F3 cells expressing EML4-ALK S1206Y (Homo sapiens, UniProt Q9HC35+Q9UM73, S1206Y); assay: Ba/F3 cell survival assay; format: cell-based; details: without IL-3
T1 sequence (Q9HC35+Q9UM73 with tags, fused parts or gaps Q9UM73:S1206Y): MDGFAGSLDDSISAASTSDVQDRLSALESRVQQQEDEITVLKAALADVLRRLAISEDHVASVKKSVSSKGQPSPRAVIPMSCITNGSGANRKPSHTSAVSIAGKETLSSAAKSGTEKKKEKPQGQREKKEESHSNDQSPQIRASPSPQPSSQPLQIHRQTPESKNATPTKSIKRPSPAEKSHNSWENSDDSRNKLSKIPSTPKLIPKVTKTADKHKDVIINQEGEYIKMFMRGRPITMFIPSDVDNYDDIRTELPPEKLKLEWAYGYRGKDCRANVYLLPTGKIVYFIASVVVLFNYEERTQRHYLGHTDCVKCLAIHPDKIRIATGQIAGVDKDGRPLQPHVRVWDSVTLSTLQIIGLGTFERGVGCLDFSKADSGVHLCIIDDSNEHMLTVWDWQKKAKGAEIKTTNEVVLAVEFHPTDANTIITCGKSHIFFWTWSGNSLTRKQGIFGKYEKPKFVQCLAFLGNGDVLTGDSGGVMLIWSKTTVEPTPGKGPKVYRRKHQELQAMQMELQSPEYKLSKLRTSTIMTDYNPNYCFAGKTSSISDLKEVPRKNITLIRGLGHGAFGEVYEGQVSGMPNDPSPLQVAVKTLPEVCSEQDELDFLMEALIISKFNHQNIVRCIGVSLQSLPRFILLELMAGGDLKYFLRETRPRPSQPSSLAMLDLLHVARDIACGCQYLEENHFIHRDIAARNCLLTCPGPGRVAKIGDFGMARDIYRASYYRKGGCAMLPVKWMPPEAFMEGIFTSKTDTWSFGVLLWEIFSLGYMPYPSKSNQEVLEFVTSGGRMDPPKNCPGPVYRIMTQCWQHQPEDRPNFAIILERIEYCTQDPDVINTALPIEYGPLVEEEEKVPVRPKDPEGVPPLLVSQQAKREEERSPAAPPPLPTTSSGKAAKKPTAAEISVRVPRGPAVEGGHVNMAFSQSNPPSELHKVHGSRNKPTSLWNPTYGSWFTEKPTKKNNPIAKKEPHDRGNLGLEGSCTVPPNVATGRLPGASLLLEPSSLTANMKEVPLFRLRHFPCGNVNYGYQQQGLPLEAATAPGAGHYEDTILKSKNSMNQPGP

[2] = molecular target: Ba/F3 cells expressing EML4-ALK 1151Tins (Homo sapiens, UniProt Q9HC35+Q9UM73, DUP1151-1151); assay: Ba/F3 cell survival assay; format: cell-based; details: Ba/F3 EML4-ALK 1151Tins, without IL-3
[3] = system: phosphorylation of EML4-ALK; assay: phospho-ALK immunoblotting in Ba/F3 cells; format: cell-based; details: all Ba/F3 lines expressing wild-type or mutant EML4-ALK
[4] = molecular target: T2, Ba/F3 cells expressing EML4-ALK G1202R (Homo sapiens, UniProt Q9HC35+Q9UM73, G1202R); assay: Ba/F3 cell survival assay; format: cell-based
T2 sequence (Q9HC35+Q9UM73 with tags, fused parts or gaps Q9UM73:G1202R): T1 sequence (Q9HC35+Q9UM73 with tags, fused parts or gaps Q9UM73:S1206Y) with G641R, Y645S

[5] = system: H3122 CR3 cells; assay: cell survival assay; format: cell-based; details: for sensitivity in cell survival assay: H3122 CR3 (no ALK mutation, EGFR activation), gefitinib 2 μM in combination
[6] = system: parental, IL-3-dependent Ba/F3 cells; assay: Ba/F3 cell survival assay; format: cell-based, murine; details: parental Ba/F3 cells cultured with IL-3 (off-target toxicity control)
[7] = molecular target: Ba/F3 cells expressing EML4-ALK L1196M (Homo sapiens, UniProt Q9HC35+Q9UM73, L1196M); assay: Ba/F3 cell survival assay; format: cell-based; details: without IL-3
[8] = system: H3122 CR2 cells; assay: cell survival assay; format: cell-based
[9] = molecular target: ALK (V1058-P1620) wild type (Homo sapiens, UniProt Q9UM73); assay: in vitro kinase assay; format: biochemical; details: in vitro kinase assay data, tables S1 and S2
[10] = molecular target: Ba/F3 cells expressing wild-type EML4-ALK (Homo sapiens, UniProt Q9HC35+Q9UM73); assay: Ba/F3 cell survival assay; format: cell-based; details: without IL-3
[11] = system: MGH006 cells; details: from crizotinib-naive ALK-positive NSCLC patient
[12] = system: H3122 cells; assay: cell survival assay; format: cell-based; details: parental H3122 cells (EML4-ALK variant 1)
[13] = system: H3122 cells; assay: apoptosis assay; format: cell-based; details: parental H3122, 1 μM crizotinib, 72 hours
[14] = system: H3122 CR3 cells; details: H3122 CR3, 1 μM crizotinib, 2 μM gefitinib or the combination, 72 hours
[15] = system: H3122 CR1 cells; assay: cells; details: Homo sapiens, NCI-H3122, 72 h
[16] = system: KIT-overexpressing H3122 cells; details: imatinib 1 μM with crizotinib 1 μM and SCF 100 ng/ml

Chain of ALK (V1058-P1620) wild type (Q9UM73 1058-1620): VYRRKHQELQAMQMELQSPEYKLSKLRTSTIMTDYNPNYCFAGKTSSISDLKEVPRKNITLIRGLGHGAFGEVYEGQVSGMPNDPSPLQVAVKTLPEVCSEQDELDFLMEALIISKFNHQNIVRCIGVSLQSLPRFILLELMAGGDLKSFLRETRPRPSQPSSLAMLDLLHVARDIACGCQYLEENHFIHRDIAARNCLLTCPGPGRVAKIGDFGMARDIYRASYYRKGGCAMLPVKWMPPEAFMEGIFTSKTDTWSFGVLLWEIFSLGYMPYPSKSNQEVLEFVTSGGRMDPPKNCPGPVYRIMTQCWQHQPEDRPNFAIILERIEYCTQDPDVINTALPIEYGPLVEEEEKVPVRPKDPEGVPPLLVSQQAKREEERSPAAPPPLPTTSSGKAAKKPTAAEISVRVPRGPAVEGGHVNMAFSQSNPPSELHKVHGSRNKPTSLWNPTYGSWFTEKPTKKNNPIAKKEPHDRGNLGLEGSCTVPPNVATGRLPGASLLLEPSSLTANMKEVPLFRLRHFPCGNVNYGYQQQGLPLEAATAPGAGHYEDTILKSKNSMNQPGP

Question: Which “potency / resistance in cell survival assay” value (shortened to “potency / resistance”) [1] does the source give for `C=CCNC1=C2C[C@@H](C)C[C@H](OC)[C@H](O)[C@@H](C)/C=C(\C)[C@H](OC(N)=O)[C@@H](OC)/C=C\C=C(/C)C(=O)NC(=CC1=O)C2=O` [17-AAG, 17-allylamino-17-demethoxygeldanamycin] here?
Answer: highly active

Question: And the “potency / resistance” value [2]?
Answer: highly active

Question: And the “effect on phospho-ALK and total ALK protein levels” value [3]?
Answer: decreased both phospho-ALK and total ALK protein levels

Question: And the “potency / resistance” value ([4]; Ba/F3 EML4-ALK G1202R, without IL-3)?
Answer: highly active

Question: What about the “sensitivity in cell survival assay” value [5] of the same compound?
Answer: resistant

Question: And the “activity in cell survival assay” value [6]?
Answer: at relatively low concentrations

Question: And the “potency / resistance” value [7]?
Answer: highly active

Question: What about the “sensitivity in cell survival assay” value ([8]; H3122 CR2 (1151Tins)) of the same compound?
Answer: highly susceptible

Question: Which “shift in IC50 compared to wild-type ALK (fold)” value ([4]; Ba/F3 EML4-ALK G1202R relative to wild-type) does the source give for `COc1cc(N2CCC(N3CCN(C)CC3)CC2)ccc1Nc1ncnc(Nc2ccccc2S(=O)(=O)C(C)C)n1` [ASP-3026] here?
Answer: fourfold

Question: And the “potency and selectivity against wild-type ALK in vitro” value [9]?
Answer: relatively potent and selective

Question: What about the “potency in cell survival assay” value [10] of the same compound?
Answer: not as potent as crizotinib and CH5424802

Question: `COc1cc(N2CCC(N3CCN(C)CC3)CC2)ccc1Nc1ncc(Cl)c(Nc2ccccc2S(=O)(=O)C(C)C)n1` [NVP-TAE684] was tested. Which “activity in cell survival assay” value [6] did it give?
Answer: less effective

Question: What does the source list for `C[C@@H](Oc1cc(-c2cnn(C3CCNCC3)c2)cnc1N)c1c(Cl)ccc(F)c1Cl` [crizotinib]?
Answer: sensitivity in cell survival assay [11]: sensitive; sensitivity in cell survival assay [12]: highly sensitive; sensitivity in cell survival assay [5]: resistant; IC50 ([5]; Homo sapiens, NCI-H3122, 72 h): > 1 µM; induction of apoptosis [13]: marked apoptosis; induction of apoptosis [14]: failed to induce apoptosis; IC50 ([8]; Homo sapiens, NCI-H3122, 72 h): > 1 µM; IC50 [15]: > 1 µM

Question: For `COc1cc2ncnc(Nc3ccc(F)c(Cl)c3)c2cc1OCCCN1CCOCC1` [gefitinib], which “sensitivity in cell survival assay” value [5] is on record?
Answer: resistant

Question: And the “induction of apoptosis” value [14]?
Answer: failed to induce apoptosis

Question: For `Cc1ccc(NC(=O)c2ccc(CN3CCN(C)CC3)cc2)cc1Nc1nccc(-c2cccnc2)n1` [imatinib], which “effect on crizotinib-resistant phenotype” value [16] is on record?
Answer: completely reversed the resistant phenotype
